Test results as given in ChEMBL document CHEMBL5291721, “A preclinical secondary pharmacology resource illuminates target-adverse drug reaction associations of marketed drugs” (Nat Commun, 2023).

Key:
Acetylcholinesterase = Acetylcholinesterase (Homo sapiens, UniProt P22303); type: functional
Adenosine receptor A3 = molecular target: T1, Adenosine receptor A3 (Homo sapiens, UniProt P0DMS8)
T1 sequence (P0DMS8 whole entry): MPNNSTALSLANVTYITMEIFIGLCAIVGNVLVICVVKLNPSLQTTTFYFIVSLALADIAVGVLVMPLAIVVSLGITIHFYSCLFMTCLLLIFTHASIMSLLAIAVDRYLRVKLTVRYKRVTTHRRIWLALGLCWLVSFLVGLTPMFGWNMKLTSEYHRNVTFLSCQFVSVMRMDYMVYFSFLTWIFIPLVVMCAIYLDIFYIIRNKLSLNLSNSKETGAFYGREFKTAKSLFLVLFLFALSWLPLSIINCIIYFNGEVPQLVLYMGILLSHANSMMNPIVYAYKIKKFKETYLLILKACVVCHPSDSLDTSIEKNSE

[1] = molecular target: T2, Alpha-1A adrenergic receptor (Homo sapiens, UniProt P35348); type: functional, cell-based
T2 sequence (P35348 whole entry): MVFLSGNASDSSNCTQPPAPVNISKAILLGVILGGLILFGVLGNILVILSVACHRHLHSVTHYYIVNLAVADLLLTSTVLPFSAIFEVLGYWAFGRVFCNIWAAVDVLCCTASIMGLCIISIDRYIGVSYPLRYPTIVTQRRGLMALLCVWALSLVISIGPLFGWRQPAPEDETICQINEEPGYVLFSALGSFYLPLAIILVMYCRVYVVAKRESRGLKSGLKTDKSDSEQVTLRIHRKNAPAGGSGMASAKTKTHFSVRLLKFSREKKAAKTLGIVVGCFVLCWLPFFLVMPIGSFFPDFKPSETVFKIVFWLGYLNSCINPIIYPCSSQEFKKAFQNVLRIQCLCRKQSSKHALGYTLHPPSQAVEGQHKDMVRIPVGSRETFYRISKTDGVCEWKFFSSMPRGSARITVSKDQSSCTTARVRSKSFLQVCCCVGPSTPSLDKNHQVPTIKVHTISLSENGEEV

[2] = molecular target: T3, Muscarinic acetylcholine receptor M2 (Homo sapiens, UniProt P08172)
T3 sequence (P08172 whole entry): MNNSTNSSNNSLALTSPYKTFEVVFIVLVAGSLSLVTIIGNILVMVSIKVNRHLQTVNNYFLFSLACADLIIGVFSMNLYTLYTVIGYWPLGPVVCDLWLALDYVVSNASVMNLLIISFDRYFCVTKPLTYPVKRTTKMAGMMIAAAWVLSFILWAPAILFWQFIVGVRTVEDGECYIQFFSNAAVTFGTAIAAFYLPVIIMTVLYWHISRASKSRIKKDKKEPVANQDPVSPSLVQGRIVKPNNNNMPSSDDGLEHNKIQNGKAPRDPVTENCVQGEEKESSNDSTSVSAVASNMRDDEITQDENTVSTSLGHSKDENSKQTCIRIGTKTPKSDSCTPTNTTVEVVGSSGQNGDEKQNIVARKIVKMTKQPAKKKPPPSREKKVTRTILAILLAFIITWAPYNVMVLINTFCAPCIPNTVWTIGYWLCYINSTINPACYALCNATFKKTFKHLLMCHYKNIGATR

Prothrombin = Prothrombin (Homo sapiens, UniProt P00734); type: functional
Histamine H3 receptor = Histamine H3 receptor (Homo sapiens, UniProt Q9Y5N1)
Mu-type opioid receptor = Mu-type opioid receptor (Homo sapiens, UniProt P35372)
[3] = molecular target: cGMP-inhibited 3',5'-cyclic phosphodiesterase 3A (Homo sapiens, UniProt Q14432); type: functional
Progesterone receptor = molecular target: T4, Progesterone receptor (Homo sapiens, UniProt P06401)
T4 sequence (P06401 whole entry): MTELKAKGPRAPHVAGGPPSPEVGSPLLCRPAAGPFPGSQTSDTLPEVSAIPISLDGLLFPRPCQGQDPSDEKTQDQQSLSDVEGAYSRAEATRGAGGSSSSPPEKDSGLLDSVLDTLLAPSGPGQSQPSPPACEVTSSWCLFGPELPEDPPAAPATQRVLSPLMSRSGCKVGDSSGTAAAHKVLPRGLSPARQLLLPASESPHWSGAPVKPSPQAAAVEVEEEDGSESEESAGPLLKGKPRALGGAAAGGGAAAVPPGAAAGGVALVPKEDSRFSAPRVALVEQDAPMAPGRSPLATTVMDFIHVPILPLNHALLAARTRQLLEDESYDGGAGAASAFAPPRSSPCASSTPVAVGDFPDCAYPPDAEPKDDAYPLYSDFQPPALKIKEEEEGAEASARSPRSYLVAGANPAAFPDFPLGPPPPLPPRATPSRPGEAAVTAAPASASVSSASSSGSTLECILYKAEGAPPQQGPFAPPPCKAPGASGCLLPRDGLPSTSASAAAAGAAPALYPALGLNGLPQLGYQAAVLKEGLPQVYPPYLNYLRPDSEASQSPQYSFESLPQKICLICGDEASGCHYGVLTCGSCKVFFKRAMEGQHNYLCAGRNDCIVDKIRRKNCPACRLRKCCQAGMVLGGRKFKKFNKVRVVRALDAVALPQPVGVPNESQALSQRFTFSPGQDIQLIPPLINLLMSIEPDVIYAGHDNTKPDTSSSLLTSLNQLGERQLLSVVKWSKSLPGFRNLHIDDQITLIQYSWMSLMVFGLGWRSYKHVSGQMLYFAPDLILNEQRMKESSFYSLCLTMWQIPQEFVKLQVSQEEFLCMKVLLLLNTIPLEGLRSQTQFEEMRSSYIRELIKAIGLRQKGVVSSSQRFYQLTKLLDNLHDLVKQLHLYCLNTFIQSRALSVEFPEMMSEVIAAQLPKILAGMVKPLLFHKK

[4] = molecular target: T5, Prostaglandin G/H synthase 1 (Homo sapiens, UniProt P23219); type: functional
[5] = molecular target: T5, Prostaglandin G/H synthase 1; type: functional; remark: listed apart in the source
[6] = molecular target: Sodium-dependent dopamine transporter (Homo sapiens, UniProt Q01959)
[7] = molecular target: Sodium-dependent serotonin transporter (Homo sapiens, UniProt P31645)

Measured: AC50
Also: assay procedure not described here.

Chain of cGMP-inhibited 3',5'-cyclic phosphodiesterase 3A (Q14432 whole entry): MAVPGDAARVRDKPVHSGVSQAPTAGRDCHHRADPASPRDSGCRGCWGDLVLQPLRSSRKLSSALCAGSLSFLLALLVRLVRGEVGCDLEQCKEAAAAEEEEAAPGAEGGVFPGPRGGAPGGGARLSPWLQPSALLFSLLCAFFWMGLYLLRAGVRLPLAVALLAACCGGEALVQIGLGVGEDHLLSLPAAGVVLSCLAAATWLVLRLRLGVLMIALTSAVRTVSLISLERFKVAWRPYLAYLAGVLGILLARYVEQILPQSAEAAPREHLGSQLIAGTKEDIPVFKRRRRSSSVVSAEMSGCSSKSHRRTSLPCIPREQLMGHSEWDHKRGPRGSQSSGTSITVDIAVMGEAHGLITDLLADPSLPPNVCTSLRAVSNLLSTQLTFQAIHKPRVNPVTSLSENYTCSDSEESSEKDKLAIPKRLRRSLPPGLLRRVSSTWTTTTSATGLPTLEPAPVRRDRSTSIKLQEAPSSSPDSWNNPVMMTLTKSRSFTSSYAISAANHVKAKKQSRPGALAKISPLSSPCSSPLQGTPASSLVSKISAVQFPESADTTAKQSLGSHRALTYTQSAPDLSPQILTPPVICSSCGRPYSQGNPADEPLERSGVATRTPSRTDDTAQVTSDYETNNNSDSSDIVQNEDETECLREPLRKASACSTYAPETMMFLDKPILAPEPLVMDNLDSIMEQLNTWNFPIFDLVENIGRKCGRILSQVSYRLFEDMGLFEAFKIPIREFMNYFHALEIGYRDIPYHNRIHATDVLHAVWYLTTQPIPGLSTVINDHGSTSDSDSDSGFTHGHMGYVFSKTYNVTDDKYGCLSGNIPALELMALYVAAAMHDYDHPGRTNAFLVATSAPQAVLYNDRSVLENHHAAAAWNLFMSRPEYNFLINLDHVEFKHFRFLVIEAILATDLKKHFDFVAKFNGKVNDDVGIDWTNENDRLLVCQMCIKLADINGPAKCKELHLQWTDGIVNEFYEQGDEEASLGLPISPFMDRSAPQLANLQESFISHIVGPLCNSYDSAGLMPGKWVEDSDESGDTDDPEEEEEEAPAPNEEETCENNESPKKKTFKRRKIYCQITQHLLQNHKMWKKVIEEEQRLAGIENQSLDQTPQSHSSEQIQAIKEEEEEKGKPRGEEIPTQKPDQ
Chain of Mu-type opioid receptor (P35372 whole entry): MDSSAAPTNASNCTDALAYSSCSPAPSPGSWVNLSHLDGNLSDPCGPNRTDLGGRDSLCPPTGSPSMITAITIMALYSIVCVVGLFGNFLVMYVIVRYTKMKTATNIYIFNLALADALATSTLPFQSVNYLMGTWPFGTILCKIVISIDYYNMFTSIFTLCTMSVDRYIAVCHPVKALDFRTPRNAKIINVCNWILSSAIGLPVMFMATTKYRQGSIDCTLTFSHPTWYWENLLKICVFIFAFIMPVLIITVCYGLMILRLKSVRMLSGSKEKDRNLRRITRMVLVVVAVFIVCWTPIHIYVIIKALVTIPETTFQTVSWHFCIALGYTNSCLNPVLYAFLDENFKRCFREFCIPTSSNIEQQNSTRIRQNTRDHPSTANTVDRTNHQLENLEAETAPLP
Chain of Sodium-dependent dopamine transporter (Q01959 whole entry): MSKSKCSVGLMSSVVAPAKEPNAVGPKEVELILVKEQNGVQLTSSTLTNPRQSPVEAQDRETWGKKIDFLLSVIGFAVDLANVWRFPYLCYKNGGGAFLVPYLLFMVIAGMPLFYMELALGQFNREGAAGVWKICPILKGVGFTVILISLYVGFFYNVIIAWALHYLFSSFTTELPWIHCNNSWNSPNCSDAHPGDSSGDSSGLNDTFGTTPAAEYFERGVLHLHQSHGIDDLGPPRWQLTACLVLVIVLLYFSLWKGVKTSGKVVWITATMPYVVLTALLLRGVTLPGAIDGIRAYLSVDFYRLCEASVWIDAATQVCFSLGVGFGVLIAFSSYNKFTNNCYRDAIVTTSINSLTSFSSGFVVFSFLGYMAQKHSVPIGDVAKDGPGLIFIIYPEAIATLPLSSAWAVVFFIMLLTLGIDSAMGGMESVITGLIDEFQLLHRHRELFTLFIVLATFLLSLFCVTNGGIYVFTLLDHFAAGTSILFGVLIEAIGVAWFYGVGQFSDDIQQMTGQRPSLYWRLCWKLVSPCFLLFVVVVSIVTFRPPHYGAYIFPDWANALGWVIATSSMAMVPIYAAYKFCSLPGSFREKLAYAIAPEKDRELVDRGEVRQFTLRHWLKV
T5 sequence (P23219 whole entry): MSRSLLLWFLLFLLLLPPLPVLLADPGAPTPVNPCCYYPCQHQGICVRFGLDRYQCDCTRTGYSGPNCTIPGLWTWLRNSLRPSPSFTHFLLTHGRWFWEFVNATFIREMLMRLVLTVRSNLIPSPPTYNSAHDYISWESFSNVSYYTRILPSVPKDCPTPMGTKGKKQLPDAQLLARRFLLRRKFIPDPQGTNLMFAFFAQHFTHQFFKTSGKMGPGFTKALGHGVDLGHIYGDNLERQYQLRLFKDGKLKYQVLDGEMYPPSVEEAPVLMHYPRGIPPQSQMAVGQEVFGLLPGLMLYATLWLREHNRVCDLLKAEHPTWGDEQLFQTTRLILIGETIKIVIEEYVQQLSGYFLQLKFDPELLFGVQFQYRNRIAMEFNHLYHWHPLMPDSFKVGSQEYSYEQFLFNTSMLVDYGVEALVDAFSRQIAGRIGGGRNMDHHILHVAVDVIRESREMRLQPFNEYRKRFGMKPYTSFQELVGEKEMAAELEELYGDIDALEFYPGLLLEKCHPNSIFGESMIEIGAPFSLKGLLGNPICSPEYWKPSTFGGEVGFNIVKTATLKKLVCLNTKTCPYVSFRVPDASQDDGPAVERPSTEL
Chain of Acetylcholinesterase (P22303 whole entry): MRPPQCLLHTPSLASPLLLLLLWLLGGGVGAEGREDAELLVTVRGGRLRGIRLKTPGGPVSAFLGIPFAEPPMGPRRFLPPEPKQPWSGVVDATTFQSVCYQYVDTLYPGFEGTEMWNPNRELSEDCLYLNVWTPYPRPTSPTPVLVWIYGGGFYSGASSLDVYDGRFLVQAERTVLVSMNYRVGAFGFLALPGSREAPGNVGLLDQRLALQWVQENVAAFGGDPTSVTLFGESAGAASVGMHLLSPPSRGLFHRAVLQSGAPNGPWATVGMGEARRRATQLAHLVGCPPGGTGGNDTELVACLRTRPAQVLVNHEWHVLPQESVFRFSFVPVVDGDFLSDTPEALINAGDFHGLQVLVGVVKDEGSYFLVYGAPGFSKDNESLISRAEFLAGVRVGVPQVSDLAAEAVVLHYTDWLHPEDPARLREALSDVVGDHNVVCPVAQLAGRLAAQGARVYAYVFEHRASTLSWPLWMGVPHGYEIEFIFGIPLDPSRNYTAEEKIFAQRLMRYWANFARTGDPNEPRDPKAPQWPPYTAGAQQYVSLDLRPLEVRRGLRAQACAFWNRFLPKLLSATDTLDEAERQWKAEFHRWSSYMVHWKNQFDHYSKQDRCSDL
Chain of Sodium-dependent serotonin transporter (P31645 whole entry): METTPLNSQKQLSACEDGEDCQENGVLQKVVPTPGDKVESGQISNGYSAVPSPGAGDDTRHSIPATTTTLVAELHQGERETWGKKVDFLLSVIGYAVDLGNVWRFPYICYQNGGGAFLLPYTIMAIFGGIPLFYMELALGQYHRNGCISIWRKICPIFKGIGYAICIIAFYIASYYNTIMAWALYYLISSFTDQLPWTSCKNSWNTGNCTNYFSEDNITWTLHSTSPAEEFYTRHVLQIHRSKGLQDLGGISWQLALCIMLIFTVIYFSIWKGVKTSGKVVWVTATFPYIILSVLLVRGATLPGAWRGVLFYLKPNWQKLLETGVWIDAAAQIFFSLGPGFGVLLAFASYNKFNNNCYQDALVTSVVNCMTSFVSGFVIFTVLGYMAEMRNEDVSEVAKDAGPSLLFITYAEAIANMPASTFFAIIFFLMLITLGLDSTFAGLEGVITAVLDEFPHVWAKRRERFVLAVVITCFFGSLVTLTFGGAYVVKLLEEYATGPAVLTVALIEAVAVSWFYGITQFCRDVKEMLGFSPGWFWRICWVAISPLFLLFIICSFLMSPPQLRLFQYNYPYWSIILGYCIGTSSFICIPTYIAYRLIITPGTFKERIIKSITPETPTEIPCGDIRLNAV
Chain of Histamine H3 receptor (Q9Y5N1 whole entry): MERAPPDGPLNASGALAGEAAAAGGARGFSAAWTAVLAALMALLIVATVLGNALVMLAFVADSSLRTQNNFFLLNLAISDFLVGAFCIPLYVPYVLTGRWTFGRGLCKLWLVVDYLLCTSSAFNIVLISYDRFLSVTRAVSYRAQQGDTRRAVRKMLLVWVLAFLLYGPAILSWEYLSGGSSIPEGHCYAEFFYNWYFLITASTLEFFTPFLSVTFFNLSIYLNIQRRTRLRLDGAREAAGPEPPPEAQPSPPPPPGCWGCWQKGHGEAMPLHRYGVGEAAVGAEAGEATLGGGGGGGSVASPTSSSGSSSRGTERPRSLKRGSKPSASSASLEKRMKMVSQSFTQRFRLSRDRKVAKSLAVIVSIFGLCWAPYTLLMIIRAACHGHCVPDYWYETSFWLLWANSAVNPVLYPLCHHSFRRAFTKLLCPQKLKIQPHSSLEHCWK

CC(C)N1CCOC(c2cccc(C(F)(F)F)c2)C1 (configuration not stated) [OXAFLOZANE]
23.5 µM: [2]
> 30 µM: all other assays above

CC(C)Cc1ccc(C(C)C(=O)OCc2ccccn2)cc1 (configuration not stated) [IBUPROFEN PICONOL]
10.8 µM: [5]
15.8 µM: Adenosine receptor A3
19.1 µM: Progesterone receptor
> 30 µM: all other assays above

Cc1cnc(C(=O)O)c[n+]1[O-] [ACIPIMOX]
> 30 µM: all assays above

Cc1ccc2c([nH]c(=O)c3c(=O)cc(C(=O)OCCC(C)C)oc32)c1C
0.0521 µM: Adenosine receptor A3
21.3 µM: [5]
6.76 µM: Acetylcholinesterase
11.8 µM: [2]
> 30 µM: all other assays above

O=C1Nc2ccccc2C1(c1ccc(O)cc1)c1ccc(O)cc1 [OXYPHENISATINE]
11.9 µM: [2]
5.01 µM: Adenosine receptor A3
> 30 µM: all other assays above

CC(C)(Oc1ccc(C(=O)c2ccc(Cl)cc2)cc1)C(=O)O [FENOFIBRIC ACID]
> 30 µM: all assays above

Cn1c(CCCC(=O)O)nc2cc(N(CCCl)CCCl)ccc21 [BENDAMUSTINE]
5.8 µM: [5]
> 30 µM: all other assays above

COC(=O)N[C@H](C(=O)N1CC2(CC2)C[C@H]1c1ncc(-c2ccc3c(c2)C(F)(F)c2cc(-c4ccc5nc([C@@H]6[C@H]7CC[C@H](C7)N6C(=O)[C@@H](NC(=O)OC)C(C)C)[nH]c5c4)ccc2-3)[nH]1)C(C)C
> 10 µM: Adenosine receptor A3 | Progesterone receptor
> 30 µM: all other assays above

CN1CCCC(CC2c3ccccc3Sc3ccccc32)C1 (configuration not stated) [METHIXENE]
18.2 µM: [7]
0.0054 µM: [2]
13.9 µM: Mu-type opioid receptor
20.3 µM: Histamine H3 receptor
> 30 µM: all other assays above
